Results published in patent US4374773A, “Triazolo-benzodiazepine derivatives” (Hoffmann-La Roche Inc., priority 1980, dated 1983).

Key:
aldosterone [1] = test: aldosterone-antagonistic properties in adrenalectomised rats (urine volume, sodium and potassium excretion); assay type: in vivo, Female Holtzmann rats; conditions: aldosterone s.c. 30 min later, urine collected 3 hours, control = aldosterone only
Experimental: If compounds of formula I are administered to the animals before the treatment with aldosterone, then there is observed, in comparison with animals which are treated only with aldosterone (control animals), a pronounced increase of the sodium excretion (i.e. the sodium retention caused by aldosterone is antagonised), whereas the potassium excretion and the urine volume are influenced to a lesser extent.
The standard experiment is carried out as follows:
Female Holtzmann rats (150-180 g) are bilaterally adrenalectomised 70 to 74 hours before the beginning of the experiment. After the operation, the animals receive a customary rat dry feed and 0.9 percent sodium chloride solution for drinking. 16 to 17 hours before the beginning of the experiment the feed is removed from the animals, but they can subsequently drink, as before, 0.9 percent sodium chloride solution ad libitum. At the beginning of the experiment the substance to be tested as an aldosterone-antagonist is administered to the animals by means of a stomach probe. 30 minutes later the animals receive a subcutaneous injection of 4 mmg/kg of aldosterone. After a further 90 minutes, the urinary bladders of the animals are emptied by careful suprapubic pressure, whereupon the animals are placed individually in metabolic cages without food and without drink. The urine of the animals is then collected for 3 hours, whereupon their urinary bladders are once more emptied. The spontaneously excreted urine and the remaining urine obtained at the conclusion of the experiment by pressing-out the urinary bladders are collected in graduated centrifuge glasses. Sodium and potassium concentrations in the urine are determined with a flame photometer.
(§1) The following Table contains results which have been obtained in the previously described experiment with representative compounds of formula I. In this Table there are given for each compound in question the dosage administered (in mg/kg p.o.) as well as the percentage variation in the urine volume, the sodium excretion and the potassium excretion in comparison with the control animals (i.e. in comparison with the animals treated only with aldosterone). Moreover, the Table contains data relating to the acute toxicity of the compounds investigated (LD 50 in mg/kg in the case of single oral administration to mice).

[2] = acute toxicity, single oral administration to mice; conditions: mouse, in vivo
Text: as §1

aldosterone [3] = test: aldosterone-antagonistic properties in adrenalectomised rats (urine volume, sodium and potassium excretion); assay type: in vivo, Female Holtzmann rats; conditions: compared with untreated animals

Row | SMILES | potassium excretion [K+] in %, based on control animals (aldosterone [1]; 1 mg/kg p.o.) | sodium excretion [Na+] in %, based on control animals (aldosterone [1]; 1 mg/kg p.o.) | urine volume in %, based on control animals (aldosterone [1]; 1 mg/kg p.o.) | LD50 [2] | potassium excretion [K+] in %, based on control animals (aldosterone [1]; 10 mg/kg p.o.) | sodium excretion [Na+] in %, based on control animals (aldosterone [1]; 10 mg/kg p.o.) | urine volume in %, based on control animals (aldosterone [1]; 10 mg/kg p.o.) | excreted urine volume, effect of aldosterone (aldosterone [3]) | potassium excretion, effect of aldosterone (aldosterone [3]) | sodium excretion, effect of aldosterone (aldosterone [3])
1 | Cc1nnc2n1-c1ccc(NC(=O)NCCO)cc1C(c1ccccc1F)=NC2(C)C [Example 4, 1-[6-(o-fluorophenyl)-1,4,4-trimethyl-4H-s-triazolo[4,3-a][1,4]benzodiazepin-8-yl]-3-(2-hydroxyethyl)urea] | 90% | 256% | 112% | > 5000 mg/kg | – | – | – | – | – | –
2 | CN(C)C(=O)Nc1ccc2c(c1)C(c1ccccc1F)=NC(C)(C)c1nncn1-2 [Example 5, 3-[6-(o-fluorophenyl)-4,4-dimethyl-4H-s-triazolo[4,3-a][1,4]benzodiazepin-8-yl]-1,1-dimethylurea] | 65% | 238% | 106% | > 5000 mg/kg | – | – | – | – | – | –
3 | CN(C)C(=O)Nc1ccc2c(c1)C(c1ccccc1Cl)=NCc1nncn1-2 [Example 8, 3-[6-(o-chlorophenyl)-4H-s-triazolo[4,3-a][1,4]benzodiazepin-8-yl]-1,1-dimethylurea] | – | – | – | > 5000 mg/kg | 100% | 252% | 131% | – | – | –
4 | Cc1nnc2n1-c1ccc(NC(=O)N(C)C)cc1C(c1ccccc1Cl)=NC2 [Example 10, 3-[6-(o-chlorophenyl)-1-methyl-4H-s-triazolo[4,3-a][1,4]-benzodiazepin-8-yl]-1,1-dimethylurea] | – | – | – | > 5000 mg/kg | 112% | 252% | 103% | – | – | –
5 | Cc1nnc2n1-c1ccc(NC(=O)NCCO)cc1C(c1ccccc1Cl)=NC2(C)C [Example 12, 1-[6-(o-chlorophenyl)-1,4,4-trimethyl-4H-s-triazolo[4,3-a][1,4]benzodiazepin-8-yl]-3-(2-hydroxyethyl)urea] | 75% | 215% | 75% | > 5000 mg/kg | – | – | – | – | – | –
6 | CC1(C)N=C(c2ccccc2Cl)c2cc(NC(=O)N3CCCC3)ccc2-n2cnnc21 [Example 13, N-[6-(o-chlorophenyl)-4,4-dimethyl-4H-s-triazolo[4,3-a][1,4]benzodiazepin-8-yl]-1-pyrrolidinecarboxamide] | 72% | 155% | 97% | > 5000 mg/kg | – | – | – | – | – | –
7 | C[C@]12CCC(=O)C=C1CC[C@@H]1[C@@H]2[C@@H](O)C[C@]2(C=O)[C@@H](C(=O)CO)CC[C@@H]12 [aldosterone] | – | – | – | – | – | – | – | reduction of the excreted urine volume | increased potassium excretion | pronounced reduction of the sodium excretion
